Measurements published in article PMC5059489, “Mechanistic evaluation and transcriptional signature of a glutathione S-transferase omega 1 inhibitor” (Nature Communications, 2016).
Several values for one entry are separate records, joined by “and”; a condition that tells them apart may be missing. Equal entries are not always repeated.

Tests used:
HCT116p53+/+ cell = assay: MTT cell proliferation at single concentration; assay type: cell-based, human
Method in brief: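 Cancer cells attached overnight, exposed to GSTO1 inhibitors for 72 h, then MTT added for 3 h at 37 °C; formazan dissolved in DMSO, absorbance read at 570 nm. At least three independent dose–response experiments, triplicate per concentration.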

GSTO1 [1] = biological target: T1, GSTO1 (Homo sapiens, UniProt P78417); assay: GSTO1 substrate assay (reduction of 4-NPG); details: for IC50: read-out: GSTO substrate assay IC50, cluster screening tables
T1 sequence (P78417 1-241): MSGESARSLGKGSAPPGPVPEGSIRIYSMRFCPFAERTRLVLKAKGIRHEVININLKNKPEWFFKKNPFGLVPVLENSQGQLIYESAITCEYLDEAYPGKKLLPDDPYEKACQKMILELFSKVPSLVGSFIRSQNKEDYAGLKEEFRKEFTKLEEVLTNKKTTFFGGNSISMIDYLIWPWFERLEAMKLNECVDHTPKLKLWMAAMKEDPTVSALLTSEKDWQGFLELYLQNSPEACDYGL
Method: For activity screening, we adapted a GSTO1 substrate assay that relies on the quantification of the reduction of S-(4-nitrophenacyl)glutathione (4-NPG), a GSTO1-specific substrate[17], using recombinant human GSTO1 in a high-throughput screening format.
Enzyme activity was measured by monitoring the reduction of 4-NPG to 4-nitroacetophenone by GSTO1.

GSTO1 [2] = biological target: T1, GSTO1; assay: In-gel fluorescence competitive CMFDA binding assay, recombinant GSTO1; details: inhibition of CMFDA binding
From the text: (§1) Primary screening of GSTO inhibitors was based on competitive inhibition of CMFDA binding to endogenous GSTO. Briefly, HCT116^p53+/+ cells (4 × 10^4 per well) were coated in a 12-well plate. […] Cells were then washed with PBS and lysed using Cell Lytic M buffer (Sigma). […] Gels were immediately scanned on a Typhoon variable mode imager (Amersham Bioscience). Quantification of fluorescent band intensity was done using Image Quant 5.2 software.

endogenous GSTO1 = biological target: T2, endogenous GSTO1 (Homo sapiens, UniProt P78417); assay: In-gel fluorescence competitive CMFDA binding assay, endogenous GSTO1 in HCT116; details: 10 µM; inhibition of CMFDA binding, HCT116
T2 sequence (P78417 1-241): T1 sequence (P78417 1-241)
From the text: as §1

Row | Compound | % Inhibition of HCT116p53+/+ cell proliferation at 10 µM (HCT116p53+/+ cell) | GSTO substrate assay % Inhibition at 10 µM (GSTO1 [1]) [%] | GSTO binding assay (% Inhibition at 10 µM) Recombinant (GSTO1 [2]) [%] | GSTO binding assay (% Inhibition at 10 µM) Endogenous (endogenous GSTO1) [%] | IC50 (GSTO1 [1]) [nM]
1 | COc1ccc(N2CCN(C(=O)CCl)CC2)cc1 [C5-5] | -16.3% | 78.6 | 44.2 | 51.5 | 
2 | O=C(CCl)N1CCN(Cc2ccccc2F)CC1 [C5-7] | -2.0% and -4.5% | 72.8 | 65.1 | 53.1 | 338
3 | N#CC(c1ccccc1)N1CCN(C(=O)CCl)CC1 (stereo not drawn) [C5-8] | 82.6% and 87.3% | 93.8 | 62.3 | 75.7 | 293
4 | O=C(CCl)N1CCN(Cc2cccc3ccccc23)CC1 [C5-9] | 68.4% and 79.3% | 83.7 | 62.3 | 52.8 | 381
5 | O=C(CCl)N1CCN(Cc2ccc(Br)s2)CC1 [C5-10] | 71.5% and 90.4% | 68.3 | 59.8 | 55.8 | 411
6 | N#CC(c1cccs1)N1CCN(C(=O)CCl)CC1 (stereo not drawn) [C5-11] | 19.6% | 5.7 | 57.7 | 62.9 | 
7 | Cc1ccc(C)c(S(=O)(=O)N2CCN(C(=O)CCl)CC2)c1 [C5-12] | 7.3% | 84.9 | 66.0 | 47.1 | 
8 | N#Cc1ccccc1S(=O)(=O)N1CCN(C(=O)CCl)CC1 [C5-13] | 81.1% and 55.9% | 98.1 | 61.1 | 66.2 | 156
9 | O=C(CCl)N1CCN(S(=O)(=O)C=Cc2ccccc2)CC1 [C5-16] | 48.3% and 46.5% | 2.4 | 82.7 | 61.7 | 
10 | COc1ccc(C2=NN(C(=O)CCl)C(c3cccc(OC)c3OC)C2)cc1 (stereo not drawn) [C5-21] | 78.2% and 83.6% | 40.0 | 65.0 | 28.9 | 
11 | O=C(CCl)N1N=C(c2cccs2)CC1c1ccco1 (stereo not drawn) [C5-22] | 41.2% | 1.0 | 68.6 | 22.7 | 
12 | NC(=O)C1CN(C(=O)CCl)c2ccccc2O1 (stereo not drawn) [C5-24] | 79.8% and 87.3% | 83.7 | 54.9 | 69.2 | 4110
